Experiment [1] deals with Pfeiffer cell line. Put plainly: Anti-proliferative activity, Pfeiffer cell line, 7 day treatment. In kind it is cell-based. The note with it: Homo sapiens, 168 h; anti-proliferative IC50, Pfeiffer cell line, 7 day treatment; read-out: Pfeiffer Cell line. In short, it runs like this: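 Cells seeded at 2 000-3 000 per well were treated with serially diluted compounds for 7 days at 37° C, 5% CO2. Growth was measured by WST-8 assay read at 450 nm after 1-4 h reagent incubation. Readings were normalized to DMSO-treated cells and IC50 values derived by nonlinear regression.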

Experiment [2] deals with KARPAS422 human B cell lymphoma cell. The experiment in a line: Cell proliferation, KARPAS422, 7 day treatment (WST-8). In kind it is cell-based. The note with it: Homo sapiens, KARPAS-422, 168 h, anti-proliferative IC50, Karpas 422 cell line, 7 day treatment; read-out: Karpas Cell line. In short, it runs like this:
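Read-out was WST-8 absorbance at 450 nm after 1-4 h with reagent, taken after 7-day compound treatment (serial dilutions, 37 °C, 5% CO2) of 2 000-3 000 KARPAS422 cells per well. IC50 fitted by nonlinear regression on DMSO-normalized values.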
(In general: Tetrazolium dyes change colour on reduction, which living cells bring about.)

In the case of `O=C1OCc2cc(F)ccc2-c2cnc(NCc3c(F)ccc4c3CCO4)n3cnc1c23` [compound 7, 7-fluoro-12-(((5-fluoro-2,3-dihydrobenzofuran-4-yl)methyl)amino)-3H,5H-4-oxa-2,11,12a-triazabenzo[4,5]cycloocta[1,2,3-cd]inden-3-one], the IC50 in experiment [1] was found to be 0.68 nM; in experiment [2], 3.35 nM.

`O=C1OCc2cc(C(F)(F)F)ccc2-c2cnc(NCc3c(F)ccc4c3CCO4)n3cnc1c23` [compound 8, 12-(((5-fluoro-2,3-dihydrobenzofuran-4-yl)methyl)amino)-7-(trifluoromethyl)-3H,5H-4-oxa-2,11,12a-triazabenzo[4,5]cycloocta[1,2,3-cd]inden-3-one]: the IC50 in experiment [1] worked out at 0.57 nM; in experiment [2], 2.91 nM.

With `O=C1OCc2cc(F)ccc2-c2cnc(NCc3cccc4c3CCO4)n3cnc1c23` [compound 9, 12-(((2,3-dihydrobenzofuran-4-yl)methyl)amino)-7-fluoro-3H,5H-4-oxa-2,11,12a-triazabenzo[4,5]cycloocta[1,2,3-cd]inden-3-one], the IC50 turned out to be 1.81 nM in experiment [1] and 5.6 nM in experiment [2].

As to `O=C1OCc2ncccc2-c2cnc(NCc3c(F)ccc4occc34)n3cnc1c23` [compound 10, 12-(((5-fluorobenzofuran-4-yl)methyl)amino)-3H,5H-4-oxa-2,6,11,12a-tetraazabenzo[4,5]cycloocta[1,2,3-cd]inden-3-one], the IC50 in experiment [1] amounted to 2.93 nM; in experiment [2] it was 15.8 nM.

Consider `O=C1OCc2c(F)cccc2-c2cnc(NCc3c(F)ccc4c3CCO4)n3cnc1c23` [compound 11, 6-fluoro-12-(((5-fluoro-2,3-dihydrobenzofuran-4-yl)methyl)amino)-3H,5H-4-oxa-2,11,12a-triazabenzo[4,5]cycloocta[1,2,3-cd]inden-3-one], for which the IC50 in experiment [1] was found to be 1.22 nM; in experiment [2] it was 4.61 nM.

With `O=C1OCc2cc(C(F)(F)F)ncc2-c2cnc(NCc3c(F)ccc4c3CCO4)n3cnc1c23` [compound 13, 12-(((5-fluoro-2,3-dihydrobenzofuran-4-yl)methyl)amino)-7-(trifluoromethyl)-3H,5H-4-oxa-2,8,11,12a-tetraazabenzo[4,5]cycloocta[1,2,3-cd]inden-3-one], the results for the IC50 in experiment [1] and in experiment [2] were 1.99 nM and 9.03 nM, respectively.

Take `O=C1OCc2nc(C(F)(F)F)ccc2-c2cnc(NCc3c(F)ccc4c3CCO4)n3cnc1c23` [compound 14, 12-(((5-fluoro-2,3-dihydrobenzofuran-4-yl)methyl)amino)-7-(trifluoromethyl)-3H,5H-4-oxa-2,6,11,12a-tetraazabenzo[4,5]cycloocta[1,2,3-cd]inden-3-one]: the IC50 amounted to 0.36 nM in experiment [1] and 3.49 nM in experiment [2].

With `O=C1NCc2ccccc2-c2cnc(NCc3c(F)ccc4c3CCO4)n3cnc1c23` [compound 15, 12-(((5-fluoro-2,3-dihydrobenzofuran-4-yl)methyl)amino)-4,5-dihydro-3H-2,4,11,12a-tetraazabenzo[4,5]cycloocta[1,2,3-cd]inden-3-one], the figures for the IC50 in experiment [1] and in experiment [2] were 1.25 nM and 4.36 nM, respectively.

On to `O=C1NCc2cc(F)ccc2-c2cnc(NCc3c(F)ccc4c3CCO4)n3cnc1c23` [compound 17, 7-fluoro-12-(((5-fluoro-2,3-dihydrobenzofuran-4-yl)methyl)amino)-4,5-dihydro-3H-2,4,11,12a-tetraazabenzo[4,5]cycloocta[1,2,3-cd]inden-3-one], for which the IC50 in experiment [1] worked out at 4.17 nM; in experiment [2] it was 20.5 nM.

Turning to `Cc1ccc2c(n1)COC(=O)c1ncn3c(NCc4c(F)ccc5c4CCO5)ncc-2c13` [compound 18, 12-(((5-fluoro-2,3-dihydrobenzofuran-4-yl)methyl)amino)-7-methyl-3H,5H-4-oxa-2,6,11,12a-tetraazabenzo[4,5]cycloocta[1,2,3-cd]inden-3-one], the IC50 came to 0.73 nM in experiment [1] and 15.3 nM in experiment [2].

On to `O=C1NCc2cc(C(F)(F)F)ccc2-c2cnc(NCc3c(F)ccc4c3CCO4)n3cnc1c23` [compound 19, 12-(((5-fluoro-2,3-dihydrobenzofuran-4-yl)methyl)amino)-7-(trifluoromethyl)-4,5-dihydro-3H-2,4,11,12a-tetraazabenzo[4,5]cycloocta[1,2,3-cd]inden-3-one], for which the IC50 in experiment [1] was 0.79 nM; in experiment [2], 9.6 nM.

On to `O=C1NCc2c(F)cccc2-c2cnc(NCc3c(F)ccc4c3CCO4)n3cnc1c23` [compound 20, 6-fluoro-12-(((5-fluoro-2,3-dihydrobenzofuran-4-yl)methyl)amino)-4,5-dihydro-3H-2,4,11,12a-tetraazabenzo[4,5]cycloocta[1,2,3-cd]inden-3-one], for which the IC50 was found to be 0.9 nM in experiment [1] and 13.9 nM in experiment [2].

Take `Cc1ccc2c(n1)CNC(=O)c1ncn3c(NCc4c(F)ccc5c4CCO5)ncc-2c13` [compound 21, 12-(((5-fluoro-2,3-dihydrobenzofuran-4-yl)methyl)amino)-7-methyl-4,5-dihydro-3H-2,4,6,11,12a-pentaazabenzo[4,5]cycloocta[1,2,3-cd]inden-3-one]: the IC50 in experiment [1] stood at 0.61 nM; in experiment [2], 14.9 nM.

Turning to `O=C1NCc2cc(C(F)(F)F)ncc2-c2cnc(NCc3c(F)ccc4c3CCO4)n3cnc1c23` [compound 22, 12-(((5-fluoro-2,3-dihydrobenzofuran-4-yl)methyl)amino)-7-(trifluoromethyl)-4,5-dihydro-3H-2,4,8,11,12a-pentaazabenzo[4,5]cycloocta[1,2,3-cd]inden-3-one], the IC50 in experiment [1] worked out at 4.88 nM; in experiment [2], 45.6 nM.

As to `O=C1NCc2ccc(F)cc2-c2cnc(NCc3c(F)ccc4c3CCO4)n3cnc1c23` [compound 23, 8-fluoro-12-(((5-fluoro-2,3-dihydrobenzofuran-4-yl)methyl)amino)-4,5-dihydro-3H-2,4,11,12a-tetraazabenzo[4,5]cycloocta[1,2,3-cd]inden-3-one], the IC50 in experiment [1] stood at 9.95 nM; in experiment [2], 89.2 nM.

As for `O=C1OCc2ccc(C(F)(F)F)cc2-c2cnc(NCc3c(F)ccc4c3CCO4)n3cnc1c23` [compound 24, 12-(((5-fluoro-2,3-dihydrobenzofuran-4-yl)methyl)amino)-8-(trifluoromethyl)-3H,5H-4-oxa-2,11,12a-triazabenzo[4,5]cycloocta[1,2,3-cd]inden-3-one], the IC50 is 38.4 nM in experiment [1] and > 100 nM in experiment [2].

As to `O=C1NCc2nc(C(F)(F)F)ccc2-c2cnc(NCc3c(F)ccc4c3CCO4)n3cnc1c23` [compound 25, 12-(((5-fluoro-2,3-dihydrobenzofuran-4-yl)methyl)amino)-7-(trifluoromethyl)-4,5-dihydro-3H-2,4,6,11,12a-pentaazabenzo[4,5]cycloocta[1,2,3-cd]inden-3-one], the IC50 in experiment [1] worked out at 0.29 nM; in experiment [2] it was 16.5 nM.

In the case of `O=C1NCc2ccc(C(F)(F)F)cc2-c2cnc(NCc3c(F)ccc4c3CCO4)n3cnc1c23` [compound 26, 12-(((5-fluoro-2,3-dihydrobenzofuran-4-yl)methyl)amino)-8-(trifluoromethyl)-4,5-dihydro-3H-2,4,11,12a-tetraazabenzo[4,5]cycloocta[1,2,3-cd]inden-3-one], the figures for the IC50 in experiment [1] and in experiment [2] were 32.9 nM and 41.4 nM, respectively.

For `O=C1OCc2cc(C(F)(F)F)ccc2-c2cnc(NCc3cccc4c3OCO4)n3cnc1c23` [compound 27, 12-((benzo[d][1,3]dioxol-4-ylmethyl)amino)-7-(trifluoromethyl)-3H,5H-4-oxa-2,11,12a-triazabenzo[4,5]cycloocta[1,2,3-cd]inden-3-one], the IC50 in experiment [1] and in experiment [2] was > 100 nM in each case.

`COc1cccc(F)c1CNc1ncc2c3c(ncn13)C(=O)OCc1cc(C(F)(F)F)ccc1-2` [compound 28, 12-((2-fluoro-6-methoxybenzyl)amino)-7-(trifluoromethyl)-3H,5H-4-oxa-2,11,12a-triazabenzo[4,5]cycloocta[1,2,3-cd]inden-3-one]: the IC50 in experiment [1] and in experiment [2] was > 100 nM each time.

Take `O=C1OCc2cnc(C(F)(F)F)cc2-c2cnc(NCc3c(F)ccc4c3CCO4)n3cnc1c23` [compound 32, 12-(((5-fluoro-2,3-dihydrobenzofuran-4-yl)methyl)amino)-8-(trifluoromethyl)-3H,5H-4-oxa-2,7,11,12a-tetraazabenzo[4,5]cycloocta[1,2,3-cd]inden-3-one]: the IC50 in experiment [1] was determined as 11.6 nM; in experiment [2], 84.4 nM.

As to `CN1Cc2nc(C(F)(F)F)ccc2-c2cnc(NCc3c(F)ccc4c3CCO4)n3cnc(c23)C1=O` [compound 33, 12-(((5-fluoro-2,3-dihydrobenzofuran-4-yl)methyl)amino)-4-methyl-7-(trifluoromethyl)-4,5-dihydro-3H-2,4,6,11,12a-pentaazabenzo[4,5]cycloocta[1,2,3-cd]inden-3-one], the IC50 turned out to be 0.22 nM in experiment [1] and 1.11 nM in experiment [2].

Take `CN1Cc2cc(C(F)(F)F)ncc2-c2cnc(NCc3c(F)ccc4c3CCO4)n3cnc(c23)C1=O` [compound 34, 12-(((5-fluoro-2,3-dihydrobenzofuran-4-yl)methyl)amino)-4-methyl-7-(trifluoromethyl)-4,5-dihydro-3H-2,4,8,11,12a-pentaazabenzo[4,5]cycloocta[1,2,3-cd]inden-3-one]: the values for the IC50 in experiment [1] and in experiment [2] were 0.35 nM and 2.64 nM, respectively.

For `O=C1c2ncn3c(NCc4c(F)ccc5c4CCO5)ncc(c23)-c2ccc(C(F)(F)F)nc2CN1CC1COCCO1` (stereo not drawn) [compound 35, 4-((1,4-dioxan-2-yl)methyl)-12-(((5-fluoro-2,3-dihydrobenzofuran-4-yl)methyl)amino)-7-(trifluoromethyl)-4,5-dihydro-3H-2,4,6,11,12a-pentaazabenzo[4,5]cycloocta[1,2,3-cd]inden-3-one], the IC50 in experiment [1] worked out at 0.12 nM; in experiment [2] it was 1.23 nM.

Source of the values: patent US12145944B2, “Imidazopyrimidines as EED inhibitors and the use thereof” (THE REGENTS OF THE UNIVERSITY OF MICHIGAN, priority 2019, dated 2024).
